Source: article PMC7178834, “Antiproliferative benzothiazoles incorporating a trimethoxyphenyl scaffold as novel colchicine site tubulin polymerisation inhibitors” (Journal of Enzyme Inhibition and Medicinal Chemistry, 2020)

How the values were obtained:
[1] = test system: human cervical cancer cell line ME-180; design: method as in PMID 24332497; settings: read-out: Cytotoxicity IC50, ME-180; cited from earlier work
22RV1 cells [2] = test: MTT antiproliferative assay, 22RV1 cells; assay type: cell-based; settings: for IC50: MTT assay, exposure for 72 h
Method: (§1) PC3, C42B, 22RV1, and LNCAP cell lines were cultured in an atmosphere containing 5% CO2 at 37 °C, with RPMI-1640 medium with 10% foetal bovine serum, 100 U/ml penicillin and 0.1 mg/ml streptomycin. Cells were seeded at a density of 1500 per well in 96-well plates for 72 h. Then, 20 μL MTT (thiazolyl blue tetrazolium bromide) solution was added to each well, and incubated for 4 h at 37 °C. 150 μL DMSO was added to each well to dissolve the formazan after removing the liquid, the absorbance was determined at 570 nm.
To discovery novel anti-prostate cancer agents and tubulin polymerisation inhibitors, we evaluated the antiproliferative activity of all benzothiazole derivatives 9a∼9k and 12a∼12d against a prostate cancer cell line 22RV1 using the 3–(4,5-dimethyl-2-thiazolyl)-2,5-diphenyl-2-H-tetrazolium bromide (MTT) assay. Based on previous references, [5]-fluorouracil (5-Fu) and was usually selected as a reference drug in the MTT assay to evaluate the antiproliferative activity of synthetic benzothiazole derivatives[26]^,[27]. Therefore, 5-Fu was used as the control drug in this work. In addition, compound 4 was also the control drug to compare the antiproliferative activity.

LNCAP cells = test: MTT antiproliferative assay, LNCAP cells; assay type: cell-based; settings: Homo sapiens
Method: as §1
(§2) Compound 12a was further examined for possible cytotoxicity against RWPE-1 (normal human prostatic cell line). […] To evaluate its antiproliferative activity against other prostate cancer cell lines, C42B, LNCAP and PC3 cells were selected to perform MTT assay.

PC3 cells [3] = test: MTT antiproliferative assay, PC3 cells; assay type: cell-based; settings: Homo sapiens, PC-3
Method: as §1, §2

[4] = test system: apoptosis-related proteins (Bcl-2 and Cleaved-parp); test: Western blot of apoptosis-related proteins, 22RV1 cells; assay type: cell-based; settings: concentration-dependent
Method: (§3) Cellular protein lysates were denatured in loading buffer at 100 °C prior to adding into SDS-PAGE. Proteins were transferred to nitrocellulose membranes, probed with indicated antibodies, and visualised by an enhanced chemiluminescence detection system. The western blotting bands were semi-quantified using Image J and adjusted for loading control.
(§4) Bcl-2 family proteins are key regulators of apoptosis and overexpression of the prominent pro-survival Bcl-2 family members like Bcl-2 is a common feature responsible for deregulation of apoptosis in prostate cancer cells. In order to investigate the apoptosis effects of compound 12a, the expression of apoptosis-related proteins (Bcl-2 and Cleaved-parp) were tested. As shown in the Figure 6(B), the expression level of Bcl-2 was decreased and the expression level of Cleaved-parp was increased in a concentration-dependent manner against prostate cancer (22RV1 cells and PC3 cells).

[5] = test system: colchicine-binding site of β-tubulin; test: EBI competition assay in PC3 cells; assay type: cell-based; settings: preincubation at 10 μM, Western blot
Method: 6-Well plates were seeded with PC3 cells for 24 h. Then, cells were incubated with compound 12a, colchicine or DMSO for 2 h and afterward treated with EBI ([…]) for 2 h. Then, the cells were harvested and lysed. Cell extracts were used for Western blotting analysis.
as §3
In order to evaluate whether benzothiazole hybrid 12a directly binds to tubulin at the colchicine binding site, we carried out N,N′-ethylenebis(iodoacetamide) (EBI) competition assay in PC3 cells according to previously published references[29]^,[30]. EBI is an alkylating agent that has the property to specifically cross-link the Cys239 and the Cys354 residues of β-tubulin involved in the colchicine-binding site[31]. The occupancy of colchicine-binding site by tubulin polymerisation inhibitors could inhibit the formation of the EBI: β-tubulin adduct.

PC3 cells [6] = test: DAPI staining, PC3 cells; assay type: cell-based; settings: PC3 cells, 1, 2 and 4 μM, 48 h
Method: (§5) Cells were seeded on a 6-well plate (2 × 10^5/well) and treated with the test compound after the incubation for 24 h. Then, cells were stained by DAPI (4′,6-diamidino-2-phenylindole) in the dark for 30 min.

C42B cells = test: MTT antiproliferative assay, C42B cells; assay type: cell-based
Method: as §1, §2

[7] = test system: apoptosis-related proteins (Bcl-2 and Cleaved-parp); test: Western blot of apoptosis-related proteins, PC3 cells; assay type: cell-based; settings: concentration-dependent
Method: as §3, §4

tubulin = test: In vitro tubulin polymerisation assay; assay type: biochemical; settings: tubulin 5.6 mg/ml in PEM buffer, read-out: Tubulin polymerisation inhibition IC50
Method: Tubulin (5.6 mg/ml) was resuspended in PEM buffer (containing 80 mM PIPES, […], 1 mM EGTA, 10.2% glycerol, 0.5 mM MgCl2) and then was preincubated with compound 12a, colchicine or vehicle DMSO on ice. The reaction was monitored by a spectrophotometer in […] at 420 nm (excitation wavelength is 340 nm).
The in vitro tubulin polymerisation inhibition activity of compound 12a was evaluated because of its best antiproliferative activity results among all benzothiazole hybrids. When tubulin was incubated with the tested compound 12a, the increased tendency of the fluorescence intensity was obviously slowed down compared with the control.

22RV1 cells [8] = test: DAPI staining, 22RV1 cells; assay type: cell-based; settings: 22RV1 cells, 1, 2 and 4 μM, 48 h
Method: as §5

[9] = Cytotoxicity against normal prostatic cell line RWPE-1; assay type: cell-based; settings: RWPE-1 normal prostatic cells; normal human prostatic cell line
Method: as §1, §2

[10] = test system: microtubule network in PC3 cells; test: Immunofluorescence staining of microtubules in PC3 cells; assay type: cell-based; settings: 48 h
Method: PC3 cells were seeded on the slices and incubated overnight. Then, cells were treated with different concentrations of 12a. After 48 h, slices were fixed by 4% paraformaldehyde for 15 min after washed by PBS for 3 times. 0.5% Triton-X-100 was added and shaked for 20 min. 0.1% BSA was used to block for 30 min and then removed. The slices were added β-tubulin antibody (1:100) and incubated overnight. Then slices were washed by PBST 3 times, bind with secondary antibody with FITC signal (1:500) in a dark. DAPI was used to stain for 3 min and then removed. After that, images were captured by Laser scanning confocal microscope (Nikon, Japan).
As the microtubule system played an important role in the maintenance of cell shape and basic cellular functions, an immunofluorescence staining assay was performed to study whether benzothiazole hybrid 12a could disrupt the microtubule dynamics in living cells.

CCOc1ccc2nc(N3CN(c4ccccc4)c4ccccc4C3=O)sc2c1 [Compound 3]
IC50 [1]: 4.01 µM

COc1ccc(CN(C(=O)CSc2nc3ccccc3s2)c2cc(OC)c(OC)c(OC)c2)cc1 [Compound 9h, 2-(Benzo[d]thiazol-2-ylthio)-N-(4-methoxybenzyl)-N-(3,4,5-trimethoxyphenyl)acetamide]
IC50 (22RV1 cells [2]; Homo sapiens, 22Rv1, 72 h): 5.24 µM

COc1cccc(CN(C(=O)CSc2nc3ccccc3s2)c2cc(OC)c(OC)c(OC)c2)c1 [Compound 9g, 2-(Benzo[d]thiazol-2-ylthio)-N-(3-methoxybenzyl)-N-(3,4,5-trimethoxyphenyl)acetamide]
IC50 (22RV1 cells [2]; Homo sapiens, 22Rv1, 72 h): 7.37 ± 0.56 µM

COc1ccc(CN(C(=O)CSc2nc3ccccc3s2)c2ccc(Cl)c(Cl)c2)cc1 [Compound 9j, 2-(Benzo[d]thiazol-2-ylthio)-N-(3,4-dichlorophenyl)-N-(4-methoxybenzyl)acetamide]
IC50 (22RV1 cells [2]; Homo sapiens, 22Rv1, 72 h): > 20 µM

COc1cc(N(Cc2ccc(C)cc2)C(=O)CSc2nc3ccccc3s2)cc(OC)c1OC [Compound 9e, 2-(Benzo[d]thiazol-2-ylthio)-N-(4-methylbenzyl)-N-(3,4,5-trimethoxyphenyl)acetamide]
IC50 (22RV1 cells [2]; Homo sapiens, 22Rv1, 72 h): 8.25 ± 0.43 µM

COc1cc(N(Cc2ccc(Br)cc2)C(=O)CSc2nc3ccccc3s2)cc(OC)c1OC [Compound 9d, 2-(Benzo[d]thiazol-2-ylthio)-N-(4-bromobenzyl)-N-(3,4,5-trimethoxyphenyl)acetamide]
IC50 (22RV1 cells [2]; Homo sapiens, 22Rv1, 72 h): 6.2 ± 0.71 µM

COc1cc(N(Cc2cccc(Cl)c2)C(=O)CSc2nc3ccccc3s2)cc(OC)c1OC [Compound 9b, 2-(Benzo[d]thiazol-2-ylthio)-N-(3-chlorobenzyl)-N-(3,4,5-trimethoxyphenyl)acetamide]
Fold activity loss when p-Br replaced with m-Cl (9d vs. 9b) (22RV1 cells [2]; 22RV1 cells, ratio of IC50 values): over 3 fold
IC50 (22RV1 cells [2]; Homo sapiens, 22Rv1, 72 h): > 12 µM
IC50 (22RV1 cells [2]): 19.1 ± 1.15 µM

O=c1[nH]cc(F)c(=O)[nH]1 [Compound 5-FU, [5]-fluorouracil, reference compound]
IC50 (22RV1 cells [2]): 18.3 ± 1.27 µM

COc1cc(N(Cc2ccc3ccccc3c2)C(=O)CSc2nc3ccccc3s2)cc(OC)c1OC [Compound 12d, 2-(Benzo[d]thiazol-2-ylthio)-N-(naphthalen-2-ylmethyl)-N-(3,4,5-trimethoxyphenyl)acetamide]
IC50 (22RV1 cells [2]; Homo sapiens, 22Rv1, 72 h): 6.93 ± 0.46 µM

COc1cc(N(Cc2ccncc2)C(=O)CSc2nc3ccccc3s2)cc(OC)c1OC [Compound 12b, 2-(Benzo[d]thiazol-2-ylthio)-N-(pyridin-4-ylmethyl)-N-(3,4,5-trimethoxyphenyl)acetamide]
IC50 (22RV1 cells [2]; Homo sapiens, 22Rv1, 72 h): 5.09 ± 0.62 µM

COc1cc(N(Cc2ccc(Cl)cc2)C(=O)CSc2nc3ccccc3s2)cc(OC)c1OC [Compound 9c, 2-(Benzo[d]thiazol-2-ylthio)-N-(4-chlorobenzyl)-N-(3,4,5-trimethoxyphenyl)acetamide]
IC50 (22RV1 cells [2]; Homo sapiens, 22Rv1, 72 h): > 12 µM
IC50 (22RV1 cells [2]): 12.2 ± 0.58 µM

COc1ccc(CN(C(=O)CSc2nc3ccccc3o2)c2cc(OC)c(OC)c(OC)c2)cc1 [Compound 4, reference compound]
IC50 (LNCAP cells): 10 µM
IC50 (22RV1 cells [2]; Homo sapiens, 22Rv1): 6.48 ± 0.25 µM
IC50 (PC3 cells [3]): 3.53 µM

COc1cc(N(Cc2c(C)noc2C)C(=O)CSc2nc3ccccc3s2)cc(OC)c1OC [Compound 12a, 2-(Benzo[d]thiazol-2-ylthio)-N-((3,5-dimethylisoxazol-4-yl)methyl)-N-(3,4,5-trimethoxyphenyl)acetamide]
Expression level of Bcl-2 [4]: decreased
Expression level of Cleaved-parp [4]: increased
Formation of the EBI: β-tubulin adduct [5]: prevented the formation of the EBI: β-tubulin adduct
Morphological changes (DAPI staining) (PC3 cells [6]): characteristic apoptotic morphological changes were observed
IC50 (C42B cells): 2.81 µM
IC50 (LNCAP cells): 4.31 µM
Expression level of Bcl-2 [7]: decreased
Expression level of Cleaved-parp [7]: increased
IC50 (tubulin): 2.87 µM
Morphological changes (DAPI staining) (22RV1 cells [8]): characteristic apoptotic morphological changes were observed
IC50 (22RV1 cells [2]; Homo sapiens, 22Rv1, 72 h): 2.13 ± 0.24 µM
IC50 at 72 h [9]: > 20 µM
Effect on interphase microtubules ([10]; 1 μM): moderately depolymerised interphase microtubules
Effect on interphase microtubules ([10]; 4 μM): much stronger depolymerisation effects
IC50 (PC3 cells [3]): 2.04 µM

COc1cc(N(Cc2ccc(Cl)nc2)C(=O)CSc2nc3ccccc3s2)cc(OC)c1OC [Compound 12c, 2-(Benzo[d]thiazol-2-ylthio)-N-((6-chloropyridin-3-yl)methyl)-N-(3,4,5-trimethoxyphenyl)acetamide]
IC50 (22RV1 cells [2]; Homo sapiens, 22Rv1, 72 h): 11.8 ± 0.91 µM

COc1ccc(CN(C(=O)CSc2nc3ccccc3s2)c2ccc(C)cc2)cc1 [Compound 9i, 2-(Benzo[d]thiazol-2-ylthio)-N-(4-methoxybenzyl)-N-(p-tolyl)acetamide]
IC50 (22RV1 cells [2]; Homo sapiens, 22Rv1, 72 h): > 20 µM

COc1ccc(CN(C(=O)CSc2nc3ccccc3s2)c2ccccc2)cc1 [Compound 9k, 2-(Benzo[d]thiazol-2-ylthio)-N-(4-methoxybenzyl)-N-phenylacetamide]
melting point: 109 to 110 °C
IC50 (22RV1 cells [2]; Homo sapiens, 22Rv1, 72 h): > 20 µM

COc1cc(N(Cc2ccccc2)C(=O)CSc2nc3ccccc3s2)cc(OC)c1OC [Compound 9f, 2-(Benzo[d]thiazol-2-ylthio)-N-benzyl-N-(3,4,5-trimethoxyphenyl)acetamide]
IC50 (22RV1 cells [2]; Homo sapiens, 22Rv1, 72 h): 9.06 ± 0.17 µM

COc1cc(N(Cc2ccc(F)cc2)C(=O)CSc2nc3ccccc3s2)cc(OC)c1OC [Compound 9a, 2-(Benzo[d]thiazol-2-ylthio)-N-(4-fluorobenzyl)-N-(3,4,5-trimethoxyphenyl)acetamide]
IC50 (22RV1 cells [2]; Homo sapiens, 22Rv1, 72 h): 16.2 ± 0.84 µM
